Data published in US12030835B2, “Substituted amide compounds useful as farnesoid X receptor modulators” (BRISTOL-MYERS SQUIBB COMPANY, priority 2019, dated 2024).

Target: T1, human FXR (Homo sapiens, UniProt Q96RI1)
T1 construct: expressed in transfected cells
T1 sequence (Q96RI1 262-486 limits assumed): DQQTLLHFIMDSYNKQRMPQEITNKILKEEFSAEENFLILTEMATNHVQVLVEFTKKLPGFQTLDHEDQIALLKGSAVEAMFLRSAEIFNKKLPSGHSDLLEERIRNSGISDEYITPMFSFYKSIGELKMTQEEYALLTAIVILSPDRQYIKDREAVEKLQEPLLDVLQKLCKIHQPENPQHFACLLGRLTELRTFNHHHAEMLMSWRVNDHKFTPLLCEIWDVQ
Assay: transient human FXR/Gal4-luciferase reporter assay
Type: cell-based
Details: Gal4-hFXR (ligand binding domain) fusion transiently transfected in HEK293 Gal4-luciferase reporter cells; overnight incubation; response as percentage of 8 μM GW-4064 control
Method: A Gal4-hFXR fusion construct reporter system was used as the primary assay to characterize compound activity. A construct including 5 copies of the Gal4 promoter response element upstream of a firefly luciferase reporter cDNA was stably expressed in HEK293 cells. This reporter cell line was maintained in Dulbecco's Modified Eagle's medium (DMEM; Gibco) supplemented with 1% penicillin-streptomycin (P/S) solution, 500 μg/ml Zeocin and 10% charcoal/dextran-treated fetal bovine serum (cs-FBS) at 37° C. in a humidified 5% CO2 atmosphere. Another plasmid was constructed in which the human cytomegalovirus promoter in the pcDNA3.1 vector directs the expression of the cDNA encoding a fusion protein comprised of the DNA binding domain from the Gal4 transcription factor fused to the ligand binding domain from human FXR.
The day prior to transfection, the reporter cells in culture are detached from the plate with trypsin and plated into a T75 flask at a sufficient density to achieve approximately 90% confluence the next morning. The transfection reagents are prepared by separately diluting 25 μg of the pcDNA3.1-Gal4-FXR plasmid into 1.87 mL of Opti-MEM (Thermo-Fisher), and 40 μL of Lipofectamine 2000 (Thermo-Fisher) into 1.87 mL of Opti-MEM, and then adding the diluted DNA solution into the diluted Lipofectamine 2000 solution and incubating at room temperature for 15-20 minutes. The mixture is further diluted with 10 ml of a solution comprised of DMEM, 10% cs-FBS, and 1% P/S immediately prior to transferring to the cells. The maintenance culture media is aspirated from the cells and the final transfection mixture is added before the cells are incubated overnight at 37° C. in a humidified 5% CO2 atmosphere. This protocol can be scaled up, and the transiently transfected cells can be cryopreserved in an assay-ready format.
For compound testing, 100 nL of the compounds (serial dilutions in DMSO) are dispensed with an Echo acoustic dispenser (Labcyte) into the wells of a Corning/Costar clear bottom 384-well white plate. The transfected cells are harvested, counted, and diluted such that 10-25,000 cells in 25 μL are plated into each well of the 384-well compound assay plate. The compound-treated cells are incubated overnight at 37° C. in a humidified 5% CO2 atmosphere. The next morning 25 μL of Steady-Glo (Promega) are added to each well of the plate, the mixture is incubated for 15 min. with shaking, and luminescence is measured on an Envision (Perkin Elmer) plate reader.

| EC50 [nM] | SMILES |
| --- | --- |
| 107 | COC(=O)/C=C/c1cccc(N(CC23CCC(c4nc(C5CCOCC5)no4)(CC2)CC3)C(=O)C2CCCCC2)c1 [Example 43, Methyl (E)-3-(3-(N-((4-(3-(tetrahydro-2H-pyran-4-yl)-1,2,4-oxadiazol-5-yl)bicyclo[2.2.2]octan-1-yl)methyl)cyclohexanecarboxamido)phenyl)acrylate] |
| 1780 | COC(=O)/C=C(\C)c1cccc(N(CC23CCC(c4ccc(C5CC5)cc4)(CC2)CC3)C(=O)C2CC2)c1 [Example 36, Methyl (E)-3-(3-(N-((4-(4-cyclopropylphenyl)bicyclo[2.2.2]octan-1-yl)methyl)cyclopropanecarboxamido)phenyl)but-2-enoate] |
| 2440 | COC(=O)/C=C/c1cccc(N(CC23CCC(c4nc(C)no4)(CC2)CC3)C(=O)C2CC2)c1 [Example 21, methyl (E)-3-(3-(N-((4-(3-methyl-1,2,4-oxadiazol-5-yl)bicyclo[2.2.2]octan-1-yl)methyl)cyclopropanecarboxamido)phenyl) acrylate] |
| 1810 | COC(=O)C1=Cc2cccc(N(CC34CCC(c5ccc(OC)cc5)(CC3)CC4)C(=O)C3CCCCC3)c2CC1 [Example 18, Methyl 5-(N-((4-(4-methoxyphenyl)bicyclo[2.2.2]octan-1-yl)methyl)cyclohexanecarboxamido)-3,4-dihydronaphthalene-2-carboxylate] |
| 56 | COC(=O)/C=C/c1cccc(N(CC23CCC(c4nc(C)no4)(CC2)CC3)C(=O)C2CCCCC2)c1 [Example 20, Methyl (E)-3-(3-(N-((4-(3-methyl-1,2,4-oxadiazol-5-yl)bicyclo[2.2.2]octan-1-yl)methyl)cyclohexanecarboxamido)phenyl)acrylate] |
| 498 | COC(=O)/C=C(\C)c1cccc(N(CC23CCC(c4ccc(C5CC5)cc4)(CC2)CC3)C(=O)C2CCCCC2)c1 [Example 37, Methyl (E)-3-(3-(N-((4-(4-cyclopropylphenyl)bicyclo[2.2.2]octan-1-yl)methyl)cyclohexanecarboxamido)phenyl)but-2-enoate] |
| 212 | COC(=O)/C=C/c1cccc(N(CC23CCC(c4ccc(N(C)C)cc4)(CC2)CC3)C(=O)C2CCOCC2)c1 [Example 6, Methyl (E)-3-(3-(N-((4-(4-(dimethylamino)phenyl)bicyclo[2.2.2]octan-1-yl)methyl)tetrahydro-2H-pyran-4-carboxamido)phenyl)acrylate] |
| 123 | COC(=O)/C=C/c1cccc(N(CC23CCC(c4nc(C)no4)(CC2)CC3)C(=O)C23CC(F)(C2)C3)c1 [Example 25, methyl (E)-3-(3-(3-fluoro-N-((4-(3-methyl-1,2,4-oxadiazol-5-yl)bicyclo[2.2.2]octan-1-yl)methyl)bicyclo[1.1.1]pentane-1-carboxamido)phenyl)acrylate] |
| 161 | COC(=O)/C=C/c1cccc(N(CC23CCC(c4ccc(C5CC5)cc4)(CC2)CC3)C(=O)C2CCCCC2)c1 [Example 29, Methyl (E)-3-(3-(N-((4-(4-cyclopropylphenyl)bicyclo[2.2.2]octan-1-yl)methyl)cyclohexanecarboxamido)phenyl)acrylate] |
| 4460 | Cc1noc(C23CCC(CN(C(=O)C4CCCCC4)c4cccc(/C=C/C(=O)N(C)C)c4)(CC2)CC3)n1 [Example 27, (E)-N-(3-(3-(dimethylamino)-3-oxoprop-1-en-1-yl)phenyl)-N-((4-(3-methyl-1,2,4-oxadiazol-5-yl)bicyclo[2.2.2]octan-1-yl)methyl)cyclohexanecarboxamide] |
| 796 | COC(=O)C1=Cc2cccc(N(CC34CCC(c5ccc(C6CC6)cc5)(CC3)CC4)C(=O)C3CC3)c2CC1 [Example 31, methyl 5-(N-((4-(4-cyclopropylphenyl)bicyclo[2.2.2]octan-1-yl)methyl)cyclopropanecarboxamido)-3,4-dihydronaphthalene-2-carboxylate] |
| 912 | CCN(CC)c1ccc(C23CCC(CN(C(=O)C4CCCCC4)c4cccc5c4CCC(C(=O)OC)=C5)(CC2)CC3)cc1 [Example 13, methyl 5-(N-((4-(4-(diethylamino)phenyl)bicyclo[2.2.2]octan-1-yl)methyl)cyclohexanecarboxamido)-3,4-dihydronaphthalene-2-carboxylate] |
| 520 | COC(=O)/C=C/c1cccc(N(CC23CCC(c4ccc(N5CCCC5)cc4)(CC2)CC3)C(=O)C2CCCCC2)c1 [Example 4, (E)-methyl 3-(3-(N-((4-(4-(pyrrolidin-1-yl)phenyl)bicyclo[2.2.2]octan-1-yl)methyl)cyclohexanecarboxamido)phenyl)acrylate] |
| 2240 | COc1ccc(C23CCC(CN(C(=O)C4CCCCC4)c4cccc5c4CCC(C(=O)O)=C5)(CC2)CC3)cc1 [Example 17, 5-(N-((4-(4-methoxyphenyl)bicyclo[2.2.2]octan-1-yl)methyl)cyclohexanecarboxamido)-3,4-dihydronaphthalene-2-carboxylic Acid] |
| 302 | COC(=O)/C=C/c1cccc(N(CC23CCC(c4nc(C)no4)(CC2)CC3)C(=O)C2CC(F)(F)C2)c1 [Example 26, methyl (E)-3-(3-(3,3-difluoro-N-((4-(3-methyl-1,2,4-oxadiazol-5-yl)bicyclo[2.2.2]octan-1-yl)methyl)cyclobutane-1-carboxamido)phenyl)acrylate] |
| 466 | COC(=O)C1=Cc2cccc(N(CC34CCC(c5ccc(C6CC6)cc5)(CC3)CC4)C(=O)C(C)C)c2CC1 [Example 32, methyl 5-(N-((4-(4-cyclopropylphenyl)bicyclo[2.2.2]octan-1-yl)methyl)isobutyramido)-3,4-dihydronaphthalene-2-carboxylate] |
| 78 | COC(=O)/C=C/c1cccc(N(CC23CCC(c4ccc(N(C)C)cc4)(CC2)CC3)C(=O)C2CCCCC2)c1 [Example 1, Methyl (E)-3-(3-(N-((4-(4-(dimethylamino)phenyl)bicyclo[2.2.2]octan-1-yl)methyl)cyclohexanecarboxamido)phenyl)acrylate] |
| 39 | CC(C)(O)C#Cc1cccc(N(CC23CCC(c4noc(C(C)(F)F)n4)(CC2)CC3)C(=O)C23CC(F)(C2)C3)c1 [Example 49, N-((4-(5-(1,1-difluoroethyl)-1,2,4-oxadiazol-3-yl)bicyclo[2.2.2]octan-1-yl)methyl)-3-fluoro-N-(3-(3-hydroxy-3-methylbut-1-yn-1-yl)phenyl)bicyclo[1.1.1]pentane-1-carboxamide] |
| 165 | COC(=O)/C=C/c1cccc(N(CC23CCC(c4ccc(N5CCOCC5)cc4)(CC2)CC3)C(=O)C2CCCCC2)c1 [Example 3, (E)-methyl 3-(3-(N-((4-(4-morpholinophenyl)bicyclo[2.2.2]octan-1-yl)methyl)cyclohexanecarboxamido)phenyl)acrylate] |
| 319 | COC(=O)/C=C/c1cccc(N(CC23CCC(c4ccc(OC)cc4)(CC2)OC3)C(=O)C2CCCCC2)c1 [Example 10, Methyl (E)-3-(3-(N-((1-(4-methoxyphenyl)-2-oxabicyclo[2.2.2]octan-4-yl)methyl)cyclohexanecarboxamido)phenyl)acrylate] |
| 947 | COC(=O)/C=C/c1cccc(N(CC23CCC(c4ccc(C5CC5)cc4)(CC2)CC3)C(=O)C2CC2)c1 [Example 28, Methyl (E)-3-(3-(N-((4-(4-cyclopropylphenyl)bicyclo[2.2.2]octan-1-yl)methyl)cyclopropanecarboxamido)phenyl)acrylate] |
| 4720 | COC(=O)/C=C/c1cccc(N(CC23CCC(c4ccc5c(cnn5C)c4)(CC2)OC3)C(=O)C2CCN(C)CC2)c1 [Example 9, (E)-Methyl 3-(3-(1-methyl-N-((1-(1-methyl-1H-indazol-5-yl)-2-oxabicyclo[2.2.2]octan-4-yl)methyl)piperidine-4-carboxamido)phenyl)acrylate] |
| 2580 | COC(=O)C1=Cc2cccc(N(CC34CCC(c5ccc(N(C)C)cc5)(CC3)CC4)C(=O)C3CCCCC3)c2CC1 [Example 12, methyl 5-(N-((4-(4-(dimethylamino)phenyl)bicyclo[2.2.2]octan-1-yl)methyl)cyclohexanecarboxamido)-3,4-dihydronaphthalene-2-carboxylate] |
